Converted amounts (≈) assume the structure as drawn. Like-named read-outs stand apart in the source and are kept apart here.
Columns and labels:
[1] = tested on: pneumococci (5 quinolone susceptible and 1 resistant strains); test: Post-antibiotic effect (PAE) testing; type: cell-based, Streptococcus pneumoniae; settings: 10×MIC; range over strains
Protocol: The post-antibiotic effect (PAE) (Craig, et al., V. Lorian (ed.) Antibiotics in Laboratory Medicine, Williams and Wilkins, Baltimore, pages 296-399, 1996) was determined by the viable plate count method, using Mueller-Hinton broth (MHB) supplemented with 5% lysed horse blood when testing pneumococci. […] Additionally, the one quinolone resistant strain was exposed at quinolone concentrations 5×MIC. Tubes containing 5 ml broth with antibiotic were inoculated with approximately 5×10^6 cfu/ml. Growth controls with inoculum but no antibiotic were included with each experiment. Tubes were placed in a shaking water bath at 35° C. for 1 h. At the end of the exposure period, cultures were diluted 1:1000 to remove antibiotic.
Viability counts were determined before exposure and immediately after dilution (0 h), and then every 2 h until tube turbidity reached a #1 McFarland standard. Inocula were prepared by suspending growth from an overnight blood agar plate in broth. The broth was incubated at 35° C. for 2-4 h in a shaking water bath until turbidity matched a #1 McFarland standard, and checked for viability by plate counts (Spangler, et al., Antimicrob. Agents Chemother. 41:2173-9176, 1997; Spangler, et al., Antimicrob. Agents Chemother. 42:1253-1255, 1998).
The PAE was defined as PAE=T-C; T=time required for viability counts of an antibiotic-exposed culture to increase by 1 log10 above counts immediately after dilution; C=corresponding time for growth control. For each experiment, viability counts (log10 cfu/ml) were plotted against time, and results expressed as the mean of two separate assays±S D (Craig, et al., V. Lorian (ed), Antibiotics in Laboratory Medicine, Williams and Wilkins, Baltimore, pages 296-329, 1996).

[2] = tested on: quinolone susceptible pneumococci (ciprofloxacin MICs ≦4.0 μg/ml); test: Agar dilution MICs of 207 quinolone susceptible pneumococcal strains; type: cell-based, Streptococcus pneumoniae; settings: Streptococcus pneumoniae, agar dilution; for MIC90: read-out: MIC90; for MIC: read-out: MIC range
Protocol: All susceptible, and some intermediate and resistant strains, were recent U.S. isolates. The remainder of intermediate and resistant strains were isolated in South Africa, Spain, France, Central and Eastern Europe, and Korea. […] Additionally these strains were tested for mutations in parC, gyrA, parE, and gyrB (Pan, et al., Antimicrob. Agents Chemother. 40:2321-2326, 1996) and for efflux mechanism (Brenwald, et al., Antimicrob. Agents Chemother. 42:2032-2035, 1998). For time-kill studies, 4 penicillin susceptible, 4 intermediate and 4 resistant strains (2 quinolone resistant) were tested, while for PAE studies 5 quinolone susceptible and 1 resistant strains were studied.
(§1) Agar dilution methodology was performed on 234 strains as described previously (M. R. Jacobs, Clin. Infect. Dis. 15:119-127, 1992; Jacobs, et al., Rev. Med. Microbiol. 6:77-93, 1995), using Mueller-Hinton agar (BBL Microbiology Systems, Cockeysville, Md.) supplemented with 5% sheep blood. Broth MICs for 12 strains tested by time-kill and 6 tested by PAE were performed according to NCCLS recommendations (Methods for Dilution Antimicrobial Susceptibility Tests for Bacteria that Grow Aerobically, 3rd Edition, NCCLS, Villanova, Pa.) using cation-adjusted Mueller-Hinton broth with 5% lysed defibrinated horse blood. Standard quality control strains, including Streptococcus pneumoniae ATCC 49619, were included in each run of agar and broth dilution MICs.

pneumococcal strains = test: Microbroth dilution MICs of strains tested by time-kill and PAE; type: cell-based; settings: Streptococcus pneumoniae, read-out: Microdilution MIC
Protocol: as §1

[3] = tested on: penicillin susceptible and resistant pneumococcal strains (2 quinolone resistant); test: Time-kill testing of 12 pneumococcal strains; type: cell-based, Streptococcus pneumoniae; settings: 12 penicillin susceptible and resistant pneumococcal strains; 24 h; bactericidal = ≧3 log10 cfu/ml (99.9%) reduction
Protocol: For time-kill studies, glass tubes containing 5 ml cation-adjusted Mueller-Hinton broth (Difco)+5% lysed horse blood with doubling antibiotic concentrations were inoculated with 5×10^5 to 5×10^6 cfu/ml and incubated at 35° C. in a shaking water bath. […] Growth controls with inoculum but no antibiotic were included with each experiment (Pankuch, et al., Antimicrob. Agents Chemother. 38:2065-2072, 1994; Pankuch, et al., Antimicrob. Agents Chemother. 40:1653-1656, 1996).
Lysed horse blood was prepared as described previously. The bacterial inoculum was prepared by diluting a 16 h broth (medium as above) culture in the same medium. Dilutions required to obtain the correct inoculum (5×10^5-5×10^6 cfu/ml) were determined by prior viability studies using each strain (Pankuch, et al., Antimicrob. Agents Chemother. 38:2065-2072, 1994; Pankuch, et al., Antimicrob. Agents Chemother. 40: 1653-1656, 1996).
To inoculate each tube of serially diluted antibiotic, 50 μl of diluted inoculum was delivered by pipette beneath the surface of the broth. Tubes were then vortexed and plated for viability counts within 10 min (approximately 0.2 h). The original inoculum was determined by using the untreated growth control. Only tubes containing an initial inoculum within the range of 5×10^5 to 5×10^6 cfu/ml were acceptable (Pankuch, et al., Antimicrob. Agents Chemother. 38:2065-2072, 1994; Pankuch, et al., Antimicrob. Agents Chemother. 40:1653-1656, 1996).
Viability counts of antibiotic-containing suspensions were performed by plating ten-fold dilutions of 0.1 ml aliquots from each tube in sterile Mueller-t-Hinton broth onto trypticase soy agar 5% sheep blood agar plates (BBL). Recovery plates were incubated for up to 72 h. Colony Counts were performed on plates yielding 30-300 colonies. The lower limit of sensitivity of colony counts was 300 cfu/ml (Pankuch, et al., Antimicrob. Agents Chemother. 38:2065-2072, 1994; Pankuch, et al., Antimicrob. Agents Chemother. 40:1653-1656, 1996).
Time-kill assays were analysed by determining the number of strains which yielded a log10 cfu/ml of −1, −2 and −3 at 0, 3, 6, 12 and 24 h, compared to counts at time 0 h. Antimicrobials were considered bactericidal at the lowest concentration that reduced the original inoculum by ≧3 log10 cfu/ml (99.9%) at each of the time periods, and bacteriostatic if the inoculum was reduced by 0-3 log10 cfu/ml. […] The problem of bacterial carryover was addressed as described previously. For macrolide time-kill testing, only strains with MICs≦4.0 μg/ml were tested (Pankuch, et al., Antimicrob. Agents Chemother. 38:2065-9072, 1994; Pankuch, et al., Antimicrob. Agents Chemother. 40:1653-1656, 1996).

[4] = strain 1 (S) penicillin susceptible
[5] = strain 2 (S) penicillin susceptible
[6] = strain 3 (S) penicillin susceptible, quinolone-resistant
[7] = strain 4 (S) penicillin susceptible, quinolone-resistant
[8] = strain 5 (I) penicillin intermediate
[9] = strain 8 (I) penicillin intermediate
[10] = strain 9 (R) penicillin resistant
[11] = strain 11 (R) penicillin resistant
[12] = strain 12 (R) penicillin resistant

SMILES	PAE for non-quinolone compounds [1] [h]	MIC90 ([2]; Penicillin I strains) [µg/mL]	MIC ([2]; Penicillin I strains) [µg/mL]	MIC50 ([2]; Penicillin R strains) [µg/mL]	MIC90 ([2]; Penicillin R strains) [µg/mL]	MIC ([2]; Penicillin R strains) [µg/mL]	MIC50 ([2]; Penicillin S strains) [µg/mL]	MIC90 ([2]; Penicillin S strains) [µg/mL]	MIC ([2]; Penicillin S strains) [µg/mL]	MIC (pneumococcal strains; [4]) [µg/mL]	MIC (pneumococcal strains; [5]) [µg/mL]	MIC (pneumococcal strains; [6]) [µg/mL]	MIC (pneumococcal strains; [7]) [µg/mL]	MIC (pneumococcal strains; [8]) [µg/mL]	MIC (pneumococcal strains; [9]) [µg/mL]	MIC (pneumococcal strains; [10]) [µg/mL]	MIC (pneumococcal strains; strain 10 (I)) [µg/mL]	MIC (pneumococcal strains; [11]) [µg/mL]	MIC (pneumococcal strains; [12]) [µg/mL]	concentration at which bactericidal after 24 h [3] [×MIC]	also measured
CC1(C)S[C@@H]2[C@H](NC(=O)[C@H](N)c3ccc(O)cc3)C(=O)N2[C@H]1C(=O)O [Amoxicillin, amoxicillin]	0.3 to 5.8	1 (≈ 2.74 µM)	0.016 to 4 (≈ 0.0438 to 10.9 µM)	2 (≈ 5.47 µM)	4 (≈ 10.9 µM)	0.5 to 8 (≈ 1.37 to 21.9 µM)	0.016 (≈ 0.0438 µM)	0.06 (≈ 0.164 µM)	0.008 to 0.25 (≈ 0.0219 to 0.684 µM)	0.016 (≈ 0.0438 µM)	0.016 (≈ 0.0438 µM)	0.008 (≈ 0.0219 µM)	0.008 (≈ 0.0219 µM)	0.03 (≈ 0.0821 µM)	0.06 (≈ 0.164 µM)	1 (≈ 2.74 µM)	1 (≈ 2.74 µM)	2 (≈ 5.47 µM)	2 (≈ 5.47 µM)	2	–
CO/N=C(\C(=O)N[C@@H]1C(=O)N2C(C(=O)O)=C(COC(N)=O)CS[C@H]12)c1ccco1 [Cefuroxime, cefuroxime]	0.8 to 2.9	2 (≈ 4.71 µM)	0.125 to 8 (≈ 0.295 to 18.9 µM)	8 (≈ 18.9 µM)	16 (≈ 37.7 µM)	0.5 to 32 (≈ 1.18 to 75.4 µM)	0.03 (≈ 0.0707 µM)	0.25 (≈ 0.589 µM)	0.008 to 2 (≈ 0.0189 to 4.71 µM)	0.5 (≈ 1.18 µM)	0.25 (≈ 0.589 µM)	0.016 (≈ 0.0377 µM)	0.016 (≈ 0.0377 µM)	0.5 (≈ 1.18 µM)	0.25 (≈ 0.589 µM)	2 (≈ 4.71 µM)	0.5 (≈ 1.18 µM)	4 (≈ 9.43 µM)	2 (≈ 4.71 µM)	4	MIC50 ([2]; Penicillin I strains): 0.5 µg/mL (≈ 1.18 µM); MIC (pneumococcal strains; strain 6 (I) penicillin intermediate): 0.5 µg/mL (≈ 1.18 µM); MIC (pneumococcal strains; strain 7 (I) penicillin intermediate): 0.5 µg/mL (≈ 1.18 µM)
